Measurements from US12667546B2, “Methods for manipulating cell state transitions in cancer” (AGENCY FOR SCIENCE, TECHNOLOGY AND RESEARCH, priority 2018, dated 2026).

Columns and labels:
NAMEC8 [1] = test: Expression of EMT and lineage markers (qRT-PCR, immunoblot, immunofluorescence) in NAMEC8; assay type: cell-based, human; conditions: transcript and protein
Protocol: Cells were rinsed twice in ice-cold PBS. Total RNA was extracted using Trizol (Invitrogen) and column-purified with RNeasy kits (Qiagen). cDNA synthesis was performed with 500 ng of total RNA at 37° C. for 2 h using the SuperScript III First-Strand Synthesis System (Thermo Fisher Scientific), and subsequently diluted 5-fold. mRNA levels were measured with gene-specific primers listed below using the ABI Prism 7900HT Sequence Detection System 2.2 (Applied Biosystems). Results were normalized to GAPDH and analyzed using SDS 2.2 software.
Cells were harvested and scraped from culture dishes in ice-cold PBS. They were then centrifuged at 12000 rpm for 5 min at 4° C. The pellets were then snap frozen in liquid nitrogen or lysed in ice-cold RIPA lysis buffer (Thermo Scientific) and left on ice for 30 min. Subsequently, the lysates were centrifuged at 12000 rpm for 10 min at 4° C. The supernatants were then aspirated and placed in fresh tubes. Protein concentrations were determined using Coomaisse Blue. 50-80 μg total protein was mixed with NuPAGE™ LDS sample buffer and heated at 70° C. for 10 min. Samples were loaded into NuPAGE™ 4-12% Bis-Tris gels (precast polyacrylamide gel; Invitrogen™). Gel electrophoresis was done at 200V for 1.5 h and then blotted onto nitrocellulose membranes (Trans-Blot Turbo™ transfer pack; Bio-Rad). The membranes were blocked with 5% skimmed milk in Tris-buffered saline (TBS; 1st BASE) with 0.1% Tween-20 (Santa Cruz), and then incubated with primary antibodies overnight at 4° C. Thereafter, the membranes were incubated with a horseradish peroxidase (HRP)-conjugated secondary antibody at room temperature for one hour. Finally, the immunoreactive proteins were visualized by using an enhanced chemiluminescent (ECL) reagent (Thermo Scientific, 34075) with the Chemidoc™ Imager (Bio-Rad, 17001401).
Cell cultures were fixed in 4% paraformaldehyde and permeabilized with 0.25% Triton X-100, followed by blocking with 1% bovine serum albumin in PBST. Cells were incubated in specific primary antibodies, followed by the appropriate secondary antibodies conjugated with Alexa Fluor-488 or -594 (Molecular Probes). Cell nuclei were then stained with DAPI and then viewed and imaged with an Axio Observer D1 epifluorescence microscope with a built-in AxioCamMR3 camera (Zeiss), using the optimal filters and 100-200× magnifications.

NAMEC8 [2] = test: Lipid droplet staining (Bodipy); assay type: cell-based, human; conditions: NAMEC8, with bexarotene
Protocol: Intracellular lipid droplets were visualized with fluorescent Bodipy dye. Cells in culture were fixed in 4% paraformaldehyde for 15 min at room temperature, rinsed twice with PBS and permeabilized with 0.2% TritonX-100 in PBS for 10 min and incubated with Bodipy diluted in PBS (final concentration 1 μg/ml) for overnight at 4° C. Cells were washed with PBS and stained with DAPI. Fluorescence images were obtained with an Axio Observer D1 epifluorescence microscope with a built-in AxioCamMR3 camera (Zeiss), using the optimal filters and 100-200× magnifications.

NAMEC8 [3] = test: Mammosphere assay, NAMEC8; assay type: cell-based, human; conditions: NAMEC8, pre-treated cells
Protocol: For mammosphere culture, cells were seeded onto 96-well ultralow-adherence plates at 700 cells/well in Mammocult medium (Stem Cell Technologies) supplemented with 4 μg/ml heparin, 0.5 μg/ml hydrocortisone and 1% methylcellulose. Spheres (>100 μm) were counted at 7-10 days later.

[4] = tested on: SERPINE1prom-Luc reporter in NAMEC8 cells; test: Dual-Glo luciferase assay of SERPINE1prom-Luc reporter (FF/Ren); assay type: cell-based, human; conditions: for dose-dependent change of SERPINE1 promoter activity: dose response (metabolic hits 10 nM to 2 μM; epigenetic hits six concentrations)
Excerpt: pGreenFire1-mCMV was cut using ClaI and SpeI and gel purified. Promoter sequences of genes Zeb1, Serpine1, CDH1, CD24, CD44, CD166 were amplified from human genomic DNA with pre-designed primers containing ClaI and SpeI restriction cut sites using AccuPrime Taq DNA Polymerase (Thermo Fisher Scientific). PCR products were then digested with restriction enzymes and gel-purified. Vector was ligated with PCR insert using Quick Ligase (Fermentas) and transformed into Stb12 competent cells. Colonies were picked and inoculated into TB media with ampicillin. Plasmids were then isolated using a plasmid miniprep kit (Qiagen) and sent for sequencing (1 stBASE Laboratories). After verifying the plasmid sequence, transfection into HEK293 cells was carried out to generate lentivirus. Transfection was carried out using FuGENE 6 (Promega). Viral supernatant was harvested at 24 h and 48 h. NAMEC8 cells were then infected twice with virus using polybrene ([…]) and checked for good transduction efficiency using Dual-Glo Luciferase System (Promega).
Stock plates of compound libraries were kindly prepared by GIS CHiP facility at 1 mM concentration in DMSO. NAMEC8-SERPINE1prom-Luc cells were seeded into 384 well plates at a density of 700 cells/well in a total volume of 50 μl, using an automated dispensing system (BioTek). 0.5 μl of compounds were then added to the wells the following day using a robotic pin transfer with a Bravo workstation (Agilent Technologies). Cells were then grown for 3 days and promoter-luciferase activity was measured using the Dual-Glo Luciferase System (Promega).
Assay was carried out according to manufacturer's instructions. To measure luciferase activity in 384 well plates, media was first removed from the plate. Firefly luciferase activity was determined by adding 30 μl Dual-Glo Luciferase substrate (Promega) to the wells and incubated for 10 min before measuring luminescence using a TECAN M1000 Pro plate reader. 15 μl Dual-Glo Stop & Glo substrate was then added to the wells, incubated for 10 min and measuring luminescence on the plate reader to determine Renilla luciferase activity. Promoter luciferase activity is then calculated by taking Firefly luciferase over Renilla luciferase.

NAMEC8 [5] = test: Cell morphology of treated NAMEC8; assay type: cell-based, human; conditions: bexarotene, TTNPB, SGC-CBP30, UNC0642, A-485 1 μM, LLY-283, GSK591 20 nM, C-IN-1 500 nM
Protocol: Human mammary epithelial cell lines (HMLE) were generated as described and immortalized using retroviral vectors to express the catalytic subunit of the human telomerase enzyme, hTERT and the SV-40 Large T antigen. NAMEC8 was generated as described. Briefly, HMLE cells were grown to 50% confluency, followed by differential trypsinization for 1 minute with 0.05% trypsin. Detached cells were carefully collected and re-plated at approximately 200 cells per well of a 24-well plate. Upon expansion, wells were screened for populations that were morphologically mesenchymal and can be stably propagated. Clonal and non-clonal NAMEC cell lines were generated. NAMEC8 is a non-clonal line derived from at least 200 mesenchymal cells. HMLE cells and NAMECs were maintained in MEGM (Lonza).

[6] = tested on: NAMEC8-SERPINE1prom-Luc cells; test: Renilla-luciferase (constitutive CMV promoter) readout for cell numbers; assay type: cell-based, human; conditions: primary screen, Renilla as readout for cell numbers, relative to DMSO
SUM159 [7] = test: Cell morphology of treated SUM159; assay type: cell-based, human; conditions: bexarotene, TTNPB 1 μM
Protocol: HMLE-Twist-ER cells were generated as described. For EMT-induction, 100 nM of 4-hydroxytamoxifen in ethanol was added to the culture medium every 48 h to induce Twist expression. Control cells were treated with ethanol. MCF7-Slug+Sox9 cells were generated as previously described. HMLE-Zeb1 cells were generated by infection with FUW-Zeb1 and rTTA. Doxycycline was added to the culture medium every 48 h to induce Zeb1 expression. To generate tumorigenic cells from NAMEC8, cells were infected with pWZL-Blast-Ras. MCF7, MCF7-Ras, SUM159 were maintained as previously described. All cell cultures were maintained at 37° C. with 5% CO2.

[8] = tested on: Estrogen response element (ERE)-luciferase reporter in NAMEC8; test: ERE-luciferase activity assay; assay type: cell-based, human
Protocol: ERE luciferase construct was kindly provided by Alan Prem Kumar, CSI, Singapore. To measure the ERE-luciferase activity, cells were seeded 24 h before transfection. ERE-luciferase (1 μg) and NSV-Renilla (0.1 μg) were packaged using Lipofectamine 2000 and transfected into NAMEC8. 24 h post-transfection, cells were reseeded into 96 well plates for drug treatment. Firefly and Renilla luciferase activities were measured with the Dual-Glo Luciferase System (Promega) 24 h post-treatment.

SUM159 [9] = test: Tumor growth of ex vivo pre-treated SUM159 injected subcutaneously; assay type: in vivo, NSG mice; conditions: short-term (14 days) ex vivo treatment before transplantation
Protocol: (§1) All animal experiments were approved by the Agency for Science Technology and Research Singapore-Biological Resource Centre IACUC (Protocol number 140940). For pre-treated SUM159 and MCF7-Ras cells, 1×10^6 cells were suspended in 100 μl media containing 50% matrigel and injected subcutaneously into both flanks of female NSG mice. The NSG mice were checked for tumor by palpation once a week and tumors were harvested when they reached ˜15 mm in diameter. For treatment in NSG mice, 1×10^5 NAMEC8-Ras cells were suspended in 100 μl media containing 50% matrigel and injected subcutaneously into both flanks of NSG mice. The NSG mice were checked for tumor formation by palpation and when tumors were about 3 mm, mice were randomized into two groups: vehicle (5% DMSO in corn oil) and treatment (Bexarotene, 100 mg/kg/day oral dosing). Tumor size was measured every week using Vernier calipers and mice were sacrificed when tumors reached ˜15 mm or after ˜4 weeks of treatment. For patient-derived cells, 2×10^6 cells were injected subcutaneously per site in NSG mice.

MCF7-Ras = test: Tumor growth of ex vivo pre-treated MCF7-Ras injected subcutaneously; assay type: in vivo, NSG mice; conditions: ex vivo treatment before injection
Protocol: as §1

SUM159 PACR cells = test: Cell viability IC50 in SUM159 PACR cells; conditions: SUM159 PACR vs SUM159 PT

COc1cc(C)c(C(=O)Oc2cc(C)c(C(=O)Oc3cc(C)c(C(=O)NC(C)C(=O)O)c(O)c3)c(O)c2)c(OC)c1 (centres unmarked) [AmidepsineA]
expression of EMT and basal/luminal markers (NAMEC8 [1]): the gain in epithelial-luminal gene markers such as E-cadherin, KRT8, and MUC1 were suppressed | accumulation of lipid droplets during retinoid treatment (NAMEC8 [2]): clear reductions in the accumulation of lipid droplets during retinoid treatment

CCCCCCCCCS(=O)(=O)Nc1ccccc1C(=O)O [FSG67]
expression of EMT and basal/luminal markers (NAMEC8 [1]): the gain in epithelial-luminal gene markers such as E-cadherin, KRT8, and MUC1 were suppressed | accumulation of lipid droplets during retinoid treatment (NAMEC8 [2]): clear reductions in the accumulation of lipid droplets during retinoid treatment

O=C(NC[C@H](O)CN1CCc2ccccc2C1)c1ccnc(NC2CCC2)c1 [GSK591]
expression of EMT and basal/luminal markers (NAMEC8 [1]): no apparent change was observed | mammosphere formation (NAMEC8 [3]): significantly reduce the size and number of spheres formed

CN(C)c1ccc(C2Nc3ccc4ccccc4c3C3=C2C(=O)CC(C)(C)C3)cc1Br (centres unmarked) [Glutaminase C-IN-1]
dose-dependent change of SERPINE1 promoter activity [4]: dose dependent decrease in SERPINE1 promoter activity | dose-dependent change of SERPINE1 promoter activity ([4]; listed as C-IN-1): dose-response effect of decreasing SERPINE1 promoter activity | cell morphology (NAMEC8 [5]): morphological change from a scattered distribution typically observed in mesenchymal cells to tight clusters of epithelial islands | expression of EMT and basal/luminal markers (NAMEC8 [1]): mesenchymal proteins Zeb1, fibronectin, Slug and Snail were decreased, epithelial E-Cadherin was increased

Nc1ncnc2c1ccn2[C@@H]1O[C@H]([C@H](O)c2ccccc2)[C@@H](O)[C@H]1O [LLY-283]
expression of EMT and basal/luminal markers (NAMEC8 [1]): no apparent change was observed | mammosphere formation (NAMEC8 [3]): significantly reduce the size and number of spheres formed

C/C(=C\c1ccc(C(=O)O)cc1)c1ccc2c(c1)C(C)(C)CCC2(C)C [TTNPB]
Avr FF/Renilla from DMSO ([4]; primary screen, NAMEC8-SERPINE1prom-Luc cells grown 3 days with compound, relative to DMSO): 0.19 | % Avr Renilla from DMSO [6]: 58.46% | cell morphology (NAMEC8 [5]): dramatic change in morphology from scattered, spindle and fibroblastic-like cells to an epithelial-like morphology | cell morphology (SUM159 [7]): dramatic change in morphology from scattered, spindle and fibroblastic-like cells to an epithelial-like morphology | ERE-luciferase reporter activity [8]: increased | tumorigenic potential (SUM159 [9]): severely crippled their tumorigenic potential for up till seven weeks post-transplantation

CC1=C(/C=C/C(C)=C/C=C/C(C)=C/C(=O)O)C(C)(C)CCC1 [Tretinoin (Aberela), Tretinoin]
activity at 10 µM ([4]; Homo sapiens, 72 h, primary screen, NAMEC8-SERPINE1prom-Luc cells grown 3 days with compound, relative to DMSO, read-out: Avr FF/Renilla from DMSO): 50% | viability at 10 µM ([6]; Homo sapiens, 72 h, read-out: % Avr Renilla from DMSO): 87% | tumor cell growth (MCF7-Ras): no impact on the tumor cell growth was observed

COc1cc2c(NC3CCN(C(C)C)CC3)nc(N3CCC(F)(F)CC3)nc2cc1OCCCN1CCCC1 [UNC0642]
expression of EMT and basal/luminal markers (NAMEC8 [1]): no apparent change was observed

CC(=O)O[C@H]1C(=O)[C@@]2(C)[C@H]([C@H](OC(=O)c3ccccc3)[C@]3(O)C[C@H](OC(=O)[C@H](O)[C@@H](NC(=O)c4ccccc4)c4ccccc4)C(C)=C1C3(C)C)[C@]1(OC(C)=O)CO[C@@H]1C[C@@H]2O [paclitaxel]
increase in paclitaxel-resistance, PACR vs parental (PT) cells (SUM159 PACR cells): > 20 fold
